Experiments:
Assay in all cases: pH-stat assay of triglyceride emulsion hydrolysis; critical oil-to-surfactant ratio
Enzyme Amano 68S = assay type: biochemical, P. sp.; conditions: for Critical Ratio / Enzyme Activity: surfactant conc.: SDS 1 mM
Source text: (§1) To determine the critical ratio for any specific enzyme-surfactant combination, aliquots of an aqueous solution, each containing a determined (constant) amount of the enzyme which is effective in the absence of any surfactant to hydrolyze the triglycerides in an oily stain on a determined (constant) amount of a fabric soiled by a determined (constant) amount of a triglyceride oil, are mixed with a determined (constant) amount of a surfactant which is within the range of the amounts conventionally present in home laundry solutions, e.g., from about 0.2 to 1.5. mM, and which is effective to inhibit the hydrolyzing activity of the enzyme. To the aliquots are added a hydrolysis activator, e.g., trioctanoin, in increasing amounts and the hydrolyzing activity of the enzyme in the various solutions is determined.
(§2) The experiments determining enzyme activity, such as those set out in Tables IA and IB, were carried out as follows:
(§3) The desired amount of triglyceride was weighed into an appropriate size beaker, on a Mettler balance (model number AE163). The corresponding amount of surfactant was added to the triglyceride, from a previously prepared aqueous surfactant stock solution, and the triglyceride and surfactant mixed manually. The sample was then adjusted to the desired weight using doubly distilled H2 O. Emulsification of the sample was carried out, prior to assaying enzyme activity, with a probe sonicator (Braun-Sonic model 2000), on ice, for approx. 2 minutes.
(§4) (ii) Enzyme Activity Measurement:
(§5) This was achieved by monitoring the rate of acid liberation, from the enzymatic hydrolysis of the triglycerides in the emulsion. The assay was initiated by adding approx. 2 ppm lipase to 10 ml of the prepared emulsion. The acid liberated was monitored by autotitration, on a Radiometer pH-stat (model number ABU80) to an endpoint of a pH of 10. Initial rates were recorded for the first 5 minutes of the reaction, and the reaction rates reported as μmole H^+ titrated . min ^-1 mgE^-1. Occasionally enzyme activity is reported as % total oil hydrolyzed in 14 min. In these examples, the reaction was allowed to run for 14 min. and the amount of acid titrated recorded. The % total oil (triglyceride) hydrolyzed was then calculated by dividing the recorded value with the theoretically calculated value assuming three equivalents of oleic acid was produced for each triglyceride equivalent. All assays were run at ambient temperatures.

Enzyme Amano P = target: T1, Enzyme Amano P (Burkholderia cepacia, UniProt P22088); assay type: biochemical, P. fluorescens
T1 construct: purchased Amano Co
Source text: as §1, §2, §3, §4, §5

Enzyme Lipolase = target: T2, Enzyme Lipolase (Thermomyces lanuginosus, UniProt O59952); assay type: biochemical, A. oryzae; conditions: for Critical Ratio, LIPOLASE: trioctanoin emulsions, lipase ~2 ppm; for R, critical (minimum activating molar) ratio, LIPOLASE: triolein emulsions
T2 construct: purchased Novo Industri; host or cells: Aspergillus oryzae
T2 sequence (O59952 23-291): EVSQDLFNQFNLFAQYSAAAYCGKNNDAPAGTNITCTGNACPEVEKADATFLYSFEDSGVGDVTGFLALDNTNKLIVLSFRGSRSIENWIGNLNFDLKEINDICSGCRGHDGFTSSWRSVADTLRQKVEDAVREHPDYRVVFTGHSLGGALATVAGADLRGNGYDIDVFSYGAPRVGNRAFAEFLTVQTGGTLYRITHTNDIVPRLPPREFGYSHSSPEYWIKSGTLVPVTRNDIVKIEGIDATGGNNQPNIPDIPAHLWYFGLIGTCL
Source text: as §1, §2, §3, §4, §5

[1] = test system: enzyme from P. putida ATCC 53552 (lipase GC-1065); assay type: biochemical, Pseudomonas putida
Source text: as §1, §2, §3, §4, §5

[2] = Table IV, trioctanoin, C12 LAS 0.2 mM, Neodol 25-3S 0.5 mM, Neodol 25-9 0.5 mM, Surfonic JL80X 0.5 mM
[3] = Table Summary, second block of lines (corresponds to triolein Tables VI-IX)
[4] = Table VIII, triolein, C12 LAS 0.5 mM, Neodol 25-3S 0.5 mM, Neodol 25-9 0.5 mM, Surfonic JL80X 2.5 mM
[5] = Table III, trioctanoin, surfactant conc.: SDS 2 mM, C12 LAS 1 mM, Neodol 25-3S 2 mM, Neodol 25-9 0.5 mM, Surfonic JL80X 0.5 mM
[6] = triolein emulsions, high conc.: SDS 10 mM, C12 LAS 5 mM, Neodol 25-9 5 mM, Neodol 25-3S 5 mM, Surfonic JL-80X 2.5 mM
[7] = Table II, trioctanoin, surfactant conc.: SDS 2 mM, C12 LAS 1 mM, Neodol 25-3S 2 mM, Neodol 25-9 0.5 mM, Surfonic JL80X 0.5 mM, Triton X100 2 mM
[8] = Table VI, triolein, surfactant conc.: SDS 1 mM, C12 LAS 0.5 mM, Neodol 25-3S 1 mM, Neodol 25-9 0.5 mM, Surfonic JL80X 0.5 mM

T1 sequence (P22088 45-364): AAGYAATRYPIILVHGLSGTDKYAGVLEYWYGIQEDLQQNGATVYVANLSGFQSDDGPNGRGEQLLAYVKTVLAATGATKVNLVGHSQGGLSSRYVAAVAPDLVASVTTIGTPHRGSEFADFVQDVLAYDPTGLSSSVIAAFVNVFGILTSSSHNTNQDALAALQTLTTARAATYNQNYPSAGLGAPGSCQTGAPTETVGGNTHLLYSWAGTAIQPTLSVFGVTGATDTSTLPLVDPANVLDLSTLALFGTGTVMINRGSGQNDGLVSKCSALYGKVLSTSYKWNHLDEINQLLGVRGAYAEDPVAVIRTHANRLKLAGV

Compound: CCCCCCCCCCCCc1ccc(S(=O)(=O)O)cc1 [C12 LAS]
- Critical Ratio (Enzyme Amano 68S; [2]): 5-10
- Enzyme Activity (Enzyme Amano 68S; [2]): 175 μmole H^+ released min^-1 mgE^
- critical ratio class, Amano 68S (Enzyme Amano 68S; [3]): - (means a critical ratio of 10-100)
- Critical Ratio (Enzyme Amano 68S; [4]): 10-20
- Enzyme Activity (Enzyme Amano 68S; [4]): 30 μmole H^+ released min^-1 mgE^
- Specific Activity determined from initial rates, AMANO 68S, High (Enzyme Amano 68S; trioctanoin emulsions, high surfactant conc. as E45): 200 μeq acid/min.mg
- Critical Ratio, AMANO 68S, High (Enzyme Amano 68S; trioctanoin emulsions, lipase ~2 ppm, high conc.: SDS 10 mM, C12 LAS 2 mM, Neodol 25-9 5 mM, Neodol 25-3S 10 mM, Surfonic JL-80X 5 mM): 1-5
- Critical Ratio, AMANO 68S, Low (Enzyme Amano 68S; trioctanoin emulsions, lipase ~2 ppm, low conc.: SDS 1 mM, C12 LAS 0.2 mM, Neodol 25-9 0.5 mM, Neodol 25-3S 0.5 mM, Surfonic JL-80X 0.5 mM): 5-10
- Specific Activity determined from initial rates, AMANO 68S, Low (Enzyme Amano 68S; trioctanoin emulsions, low surfactant conc. as E44): 175 μeq acid/min.mg
- Activity (specific hydrolysis activity from initial rates), AMANO 68S, High (Enzyme Amano 68S; triolein emulsions, high conc. as E59): 55 μeq acid/min./mg
- R, critical (minimum activating molar) ratio, AMANO 68S, High (Enzyme Amano 68S; triolein emulsions, high conc.: SDS 10 mM, C12 LAS 5 mM, Neodol 25-9 5 mM, Neodol 25-3S 5 mM, Surfonic JL-80X 2.5 mm): 10-20
- Activity (specific hydrolysis activity from initial rates), AMANO 68S, Low (Enzyme Amano 68S; triolein emulsions, low conc. as E58): 30 μeq acid/min./mg
- R, critical (minimum activating molar) ratio, AMANO 68S, Low (Enzyme Amano 68S; triolein emulsions, low conc.: SDS 1 mM, C12 LAS 0.5 mM, Neodol 25-9 0.5 mM, Neodol 25-3S 0.5 mM, Surfonic JL-80X 2.5 mM): 10-20
- Critical Ratio (Enzyme Amano P; [5]): 5-20
- Enzyme Activity (Enzyme Amano P; [5]): 70 μmole H^+ released min^-1 mgE^
- critical ratio class, Amano P (Enzyme Amano P; [3]): - (means a critical ratio of 10-100)
- Enzyme Activity (Enzyme Amano P; Table VII, triolein, surfactant conc.: SDS 1 mM, others 0.5 mM): 13 μmole H^+ released min^-1 mgE^
- Specific Activity determined from initial rates, AMANO P, High (Enzyme Amano P; trioctanoin emulsions, high surfactant conc. as E43): 70 μeq acid/min.mg
- Critical Ratio, AMANO P, High (Enzyme Amano P; trioctanoin emulsions, lipase ~2 ppm, high conc.: SDS 10 mM, C12 LAS 5 mM, Neodol 25-9 5 mM, Neodol 25-3S 20 mM, Surfonic JL-80X 5 mM): 5-10
- Critical Ratio, AMANO P, Low (Enzyme Amano P; trioctanoin emulsions, lipase ~2 ppm, low conc.: SDS 2 mM, C12 LAS 1 mM, Neodol 25-9 0.5 mM, Neodol 25-3S 2.0 mM, Surfonic JL-80X 0.5 mM): 5-10
- Specific Activity determined from initial rates, AMANO P, Low (Enzyme Amano P; trioctanoin emulsions, low surfactant conc. as E42): 70 μeq acid/min.mg
- Activity (specific hydrolysis activity from initial rates), AMANO P, High (Enzyme Amano P; triolein emulsions, high conc. as E57): 26 μeq acid/min./mg
- R, critical (minimum activating molar) ratio, AMANO P, High (Enzyme Amano P; [6]): 10-20
- Activity (specific hydrolysis activity from initial rates), AMANO P, Low (Enzyme Amano P; triolein emulsions, low conc. as E56): 13 μeq acid/min./mg
- R, critical (minimum activating molar) ratio, AMANO P, Low (Enzyme Amano P; triolein emulsions, low conc.: SDS 1 mM, others 0.5 mM): 10-20
- Critical Ratio (Enzyme Lipolase; Table IX, triolein, C12 LAS 0.5 mM): 30-40
- critical ratio class, Lipolase (Enzyme Lipolase; [3]): - (means a critical ratio of 10-100)
- Critical Ratio (Enzyme Lipolase; Table V, trioctanoin, each surfactant 0.5 mM): 0.5-1
- Critical Ratio, LIPOLASE (Enzyme Lipolase; surfactant 0.5 mM): 0.5-1
- Critical Ratio, LIPOLASE (Enzyme Lipolase; surfactant 5 mM): 0.5-1
- R, critical (minimum activating molar) ratio, LIPOLASE (Enzyme Lipolase; surfactant 0.5 mM): 30-40
- R, critical (minimum activating molar) ratio, LIPOLASE (Enzyme Lipolase; surfactant 5.0): 40-50
- Critical Ratio [1, 7]: 5-10
- Enzyme Activity [1, 7]: 250 μmole H^+ released min^-1 mgE^
- critical ratio class, enzyme From ATCC 53552 [1, 3]: 0 (means a critical ratio of 1.0-10)
- Critical Ratio [1, 8]: 5-10
- Enzyme Activity [1, 8]: 50 μmole H^+ released min^-1 mgE^
- Critical Ratio ([1]; Table XVIII, triolein, Pseudomonas putida enzyme, surfactant 0.5 mM): 5-10
- Critical Ratio ([1]; Table XVIII, triolein, Pseudomonas putida enzyme, surfactant 5.0 mM): 1-5
- Specific Activity determined from initial rates, GC-1065, High ([1]; trioctanoin emulsions, high surfactant conc. as E41): 250 μeq acid/min.mg
- Critical Ratio, GC-1065, High ([1]; trioctanoin emulsions, lipase ~2 ppm, high surfactant conc.: SDS 10 mM, C12 LAS 5 mM, Neodol 25-9 5 mM, Neodol 25-3S 10 mM, Surfonic JL-80X 5 mM, Triton X-100 10 mM, C16 DAPS 10 mM): 5-10
- Critical Ratio, GC-1065, Low ([1]; trioctanoin emulsions, lipase ~2 ppm, low surfactant conc.: SDS 2 mM, C12 LAS 1 mM, Neodol 25-9 0.5 mM, Neodol 25-3S 2 mM, Surfonic JL-80X 0.5 mM, Triton X-100 2 mM, C16 DAPS 0.5 mM): 2-10
- Specific Activity determined from initial rates, GC-1065, Low ([1]; trioctanoin emulsions, low surfactant conc. as E40): 250 μeq acid/min.mg
- Activity (specific hydrolysis activity from initial rates), GC-1065, High ([1]; triolein emulsions, high conc. as E55): 60 μeq acid/min./mg
- R, critical (minimum activating molar) ratio, GC-1065, High [1, 6]: 1-5
- Activity (specific hydrolysis activity from initial rates), GC-1065, Low ([1]; triolein emulsions, low conc. as E54): 50 μeq acid/min./mg
- R, critical (minimum activating molar) ratio, GC-1065, Low ([1]; triolein emulsions, low conc.: SDS 1 mM, C12 LAS 0.5 mM, Neodol 25-9 0.5 mM, Neodol 25-3S 1 mM, Surfonic JL-80X 0.5 mM): 5-10

From patent US5223169A, “Hydrolase surfactant systems and their use in laundering” (priority 1991, dated 1993)
